In patent US9738668B2:

Tests used:
brain mitochondria = experiment: Mitochondria swelling assay in response to Ca2+; set-up: species or system mice; conditions: for calcium-mediated mitochondrial swelling: with calcium
Method: Brain from mice without white matter was used for mitochondrial isolation. Brain was homogenized in 9 ml of ice-cold EB buffer (1 mmol EDTA, 1-6 mg/ml BSA) using a Dounce homogenizer until no particles could be seen. Homogenates were centrifuged at 1300×g for 5 minutes. Supernatant from this fraction was carefully laid on top of a 15% PERCOLL solution (10 ml) and then centrifuged at 16000 RPM for 10 minutes. The pellet was carefully mixed with 9 ml of mitochondrial buffer (4.098% D-mannitol, 2.56% sucrose, 0.034% K2HPO4, pH 7.3-7.4) and 200 μl of 1% digitonin. After 5 minutes incubation on ice, the mixture was centrifuged at 8000 RPM for 10 minutes. Mitochondrial pellet was washed once with mitochondrial buffer. Subsequently, the mitochondrial pellet was resuspended in 100 μl of mitochondrial buffer and was used for further experiments.
A proper amount of mitochondria was resuspended into 1 ml swelling assay buffer (150 mM KCl, 2 mM KH2PO4, 10 mM HEPES, pH 7.4) and energized by 1 mM glutamate and 1 mM malate. Calcium at varying concentrations was added into the assay buffer to trigger mitochondrial swelling. Mitochondrial permeability transition was determined by studying the rate of change in absorbance at 540 nm via a spectrophotometer.
Given that the Compounds 4, 8 and 15 could inhibit ABAD activity, it was determined whether these same compounds could decrease mitochondrial permeability transition pore (mPTP) formation.

SK-N-SH cells [1] = experiment: Mitochondrial cytochrome c oxidase (CcO) activity in Aβ-treated cells; type: cell-based; conditions: for CcO activity, inhibitor alone: 1 μM inhibitor without Aβ; for CcO activity: 5 μM oligomer Aβ1-42 plus 1 μM inhibitor, 48 hours
Method: SK-NSH cells were treated with 5 μM oligomer Aβ plus 1 μM of ABAD inhibitor; inhibitor alone; vehicle (VEH) without inhibitor; or Aβ alone. Forty-eight hour later, CcO activity (μmol protein mg^−1 min^−1) was measured in cell lysates.
The CcO activity was measured according to known methods (Du, et al. (2008) Nat. Med. 14:1097-105) with a cytochrome c oxidase kit (Sigma). In brief, SK-N-SH cells were incubated with ABAD inhibitor and oligomer Aβ for 48 hours. After washing the cells twice with PBS, the cells were collected and concentration was determined by the Bradford method. A suitable volume of cells and enzyme solution was added to 475 μl assay buffer. The reaction was triggered by the addition of 25 μl freshly prepared ferrocytochrome C substrate solution into the cuvette. Changes in OD550 nm were recorded immediately with an Amersham Biosciences ULTROSPECT 3100 pro spectrophotometer.
To assess the effect of ABAD inhibitor on Aft-induced mitochondrial respiratory function, CcO activity was determined.

cells [2] = experiment: Trypan blue dye exclusion (cell viability and toxicity); type: cell-based; conditions: 1, 10, 50, 100 μM, 48 to 66 hours
Method: The trypan blue dye exclusion is commonly used for measuring cell viability and toxicity. 48-66 hours after treatment of ABAD compounds, the trypan blue exclusion experiments were performed. In brief, cells plated in 96-well plates were washed with the balanced salt solution (Hanks-Balanced Salts/HBSS) once, then replaced with HBSS including trypan blue solution to the final concentration of 0.2% (Sigma-Aldrich, St. Louis, Mo.), and mixed thoroughly. After standing at room temperature for 5 minutes, the cells were washed with HESS again and then maintained in the well with HBSS. Both the stained and unstained cells in each well were counted under a microscope (Nikon E400). The calculated percentage of unstained cells represented the percentage of viable cells. Cell viability (%)=total viable cells (unstained)/total cells (stained and unstained)×100.
(§1) The effect of ABAD inhibitors on cell viability and toxicity was assessed using MTT reduction assay and trypan blue exclusion, which are widely used to assess cell survival and toxicity and to screen for drugs toxicity. Cells were treated with a range of concentrations of ABAD compound (4 and 8) at 1, 10, 50, 100 μM for 48 to 66 hours.

[3] = Pharmacokinetic study and BBB penetration, LC-MS/MS of plasma and brain; type: in vivo, C57BL6 mice; conditions: mice, intravenous 10 mg/kg
Method: Using the validated LCMS/MS method, blood and brain levels of 4, 8, and 15 were measured in male and female C57BL6 mice (8-10 week-old, weighing approximately 25-30 grams). The mice were housed in a room with controlled temperature (23±3° C.) and moisture level (55±15% relative humidity) and exposed to a controlled 12 hour light/12 hour dark cycle. They were allowed to access to food and water ad libitum. Mice were fasted for 6 hours with free access to water prior to the pharmacokinetic study. To determine the time course of compounds 4, 8, and 15 action in the brain, the plasma pharmacokinetics and BBB penetration capability of the inhibitors were investigated. In these experiments, compounds 4, 8, and 15 were administered to mice by intravenous injection at a dosage of 10 mg/kg. Blood and brain samples were collected from mouse at each time point (2, 5, 10, 30, 60, 120, 240, 360, 720, 1440, and 2880 minutes), a total of 11 time points. For plasma measurements, blood (approximately 500-800 μl) was collected via cardiac-puncture into tubes containing sodium heparin anti-coagulant. Plasma was separated via centrifugation (4° C., 3500 rpm, 10 minutes) and stored in −80° C. freezer. For qualitative confirmations of these compounds in CSF, samples were collected at 2 time points (240 and 1440 min) from five animals at each time point. At the time of measurement, frozen plasma samples were thawed at room temperature and vortexed thoroughly. The following quantities were estimated using non-compartmental calculations performed with WINNONLIN 5.2 (Pharsight, Sunnyvale, Calif.): the area under the plasma concentration-time curve during the period of observation (AUC0-τ); the area under the plasma concentration-time curve from zero to infinity (AUC0-∞); the maximum plasma concentration (Cmax); the time to reach Cmax (Tmax); and the half-life (t1/2).
The LC-MS/MS method described above was used for the determination of 4, 8 and 15 in plasma, brain, and CSF for pharmacokinetic study. Based on the initial concentration data, the pharmacokinetic parameters including the area under the plasma concentration-time curve during the period of observation (AUC0-t), the area under the plasma concentration-time curve from zero to infinity (AUC0-∞) the maximum plasma concentration (Cmax) the time to reach Cmax (Tmax) and the half-life (t1/2) are shown in Table 8.

cells [4] = experiment: MTT reduction assay (cell survival and toxicity); type: cell-based; conditions: 1, 10, 50, 100 μM, 48 to 66 hours
Method: The MTT (3-(4,5-dimethylthiazol-2-yl)-2,5-diphenyltetrazolium bromide) assay, which is widely used to measure cell proliferation and to screen for anticancer drugs, was used for assessing cell viability. Cells were treated with a range of ABAD compounds at 1, 10, 50, and 100 μM for 48 hours and then subjected to MTT reduction assay following the manufacture's instruction.
as §1

SK-N-SH cells [5] = experiment: ATP levels in Aβ-treated cells; type: cell-based; conditions: for ATP levels: 5 μM Aβ1-42 plus 1 μM inhibitor; for ATP levels, inhibitor alone: inhibitor without Aβ
Method: Forty-eight hour later, ATP levels (μmol mg^−1 protein) were measured in cell lysates.
To determine the effect of ABAD inhibitors on Aβ-induced impairment in energy metabolism, ATP levels were measured. […] ATP levels were measured in the cell lysates. […] Therefore, ABAD inhibitors can block mitochondrial dysfunction mediated by Aβ.

## COc1ccc2nc(N[C@@H](c3ccc(O)cc3)P(=O)(OC)OC)sc2c1 (racemic) [Compound 8, Dimethyl ((4-hydroxyphenyl)((6-methoxybenzo[d]thiazol-2-yl)amino)methyl)phosphonate]
Brain mitochondria
  calcium-mediated mitochondrial swelling: antagonized calcium-mediated mitochondrial swelling
  mitochondrial swelling without calcium: did not affect mitochondrial swelling
SK-N-SH cells [1]
  CcO activity, inhibitor alone: had no effect on CcO activity
  CcO activity: reversed the Aβ-mediated decrease of CcO activity
Cells [2]
  percentage of trypan blue-positive cells: did not exhibit decreased MTT reduction, increased percentage of trypan blue-positive cells
[3]; Brain
  t1/2: 8.3 h
[3]; Plasma
  t1/2: 5.5 h
Cells [4]
  MTT reduction: did not exhibit decreased MTT reduction
SK-N-SH cells [5]
  ATP levels: rescued ATP levels
  ATP levels, inhibitor alone: comparable to cells treated with vehicle alone

## COC(=O)c1cc([C@H](Nc2nc3ccc(OC)cc3s2)P(=O)(OC)OC)ccc1O [Compound 4, Methyl 5-((dimethoxyphosphoryl)((6-methoxybenzo[d]thiazol-2-yl)amino)methyl)-2-hydroxybenzoate]
Brain mitochondria
  calcium-mediated mitochondrial swelling: antagonized calcium-mediated mitochondrial swelling
  mitochondrial swelling without calcium: did not affect mitochondrial swelling
SK-N-SH cells [1]
  CcO activity, inhibitor alone: had no effect on CcO activity
  CcO activity: reversed the Aβ-mediated decrease of CcO activity
Cells [2]
  percentage of trypan blue-positive cells: did not exhibit decreased MTT reduction, increased percentage of trypan blue-positive cells
[3]; Brain
  t1/2: 17.1 h
[3]; Plasma
  t1/2: 6.2 h
Cells [4]
  MTT reduction: did not exhibit decreased MTT reduction
SK-N-SH cells [5]
  ATP levels: rescued ATP levels
  ATP levels, inhibitor alone: comparable to cells treated with vehicle alone
